Results from patent US12552773B2, “Compound for specifically enhancing spatial coupling degree of TRPV4-KCa2.3 complex and use thereof” (Jiangnan University, priority 2020, dated 2026).

Key:
TRPV4-KCa2.3 complex = target: T1, TRPV4-KCa2.3 complex (Mus musculus, UniProt P58391+Q9EPK8); assay: In vitro coupling activity test (FRET, immunostained endothelial cells); type: cell-based, mice; conditions: for Fret efficiency value (average value): endothelial cells, 10 μmol/L, 24 hours, higher value = higher degree of coupling; for coupling between the TRPV4 and the KCa2.3: high-salt state, cells incubated 24 hours, compared with JNC-440
T1 construct: endogenous in cells
Method: Endothelial cells were cultured for 3-5 days, separately incubated with the compounds in Examples 1, 2, 3, 4, 5 and 6 with a concentration of 10 μmol/L for 24 hours, fixed with 4% paraformaldehyde for 30 minutes, permeabilized with PBS containing 0.2% Triton X-100 for 10 minutes and blocked with PBS containing 5% BSA for 1 hour. Then, the cells were sequentially stained with TRPV4-550 as a primary antibody, KCa2.3 as a coupled secondary antibody (Life Technologies) and DAPI (Vector Laboratories, Burlingame, CA, USA). A laser confocal microscope was used for photographing, and a Fret value was calculated.
A higher value indicated a higher degree of coupling between the two proteins.
With reference to FIG. 3, the compound obtained in Example 1 was abbreviated as compound 365; the compound obtained in Example 2 was abbreviated as compound 366; the compound obtained in Example 3 was abbreviated as compound 491; the compound obtained in Example 4 was abbreviated as compound 437; the compound obtained in Example 5 was abbreviated as compound 455; and the compound obtained in Example 6 was abbreviated as compound 469. HS referred to hypertensive mice induced by a high-salt diet, and WT referred to normal wild-type mice.

[1] = In vitro metabolism in liver microsomes, dog; type: in vitro ADME
Method: (§1) An in vitro metabolic incubation system with a total volume of 207 μL and an organic solvent less than 1% included 188 μL of a 0.1 mol/L PBS buffer (pH 7.4) and 12 μL of an NADPH generation system (prepared by mixing 10 μL of a solution A and 2 μL of a solution B on an ice bath before use). 2 μL of the compounds in Examples 4 and 5 with a concentration of 20 μm/L were added into the incubation system on an ice bath for pre-incubation in a water bath at 37° C. for 5 minutes. Then, 5 μL of liver microsomal enzymes of different species were added on an ice bath for uniform mixing and incubation in a water bath at 37° C. 400 μl of glacial acetonitrile (containing 50 ng/ml of an internal standard (caffeine)) was separately added at 0 minute, 10 minutes, 30 minutes, 60 minutes, 90 minutes, 120 minutes, 180 minutes, 360 minutes and 480 minutes to stop a reaction, and a parallel experiment was carried out 3 times. A rotation speed was 13,000 rpm/15 min. A supernatant was taken and detected by using an ultra-high performance liquid chromatography-quadrupole time-of-flight mass spectrometer.

[2] = In vitro metabolism in liver microsomes, human; type: in vitro ADME; conditions: for In vivo inherent clearance rate: from human liver microsomes; for half-life at 0.193 µM: human, liver microsomes, pH 7.4, human liver microsomes, read-out: Half-life obtained after incubation in liver microsomes of human (converted); for microsomal CLint at 0.193 µM: pH 7.4, read-out: Inherent clearance rate in liver microsomes
Method: as §1

[3] = In vitro metabolism in liver microsomes, rat; type: in vitro ADME
Method: as §1

[4] = In vitro metabolism in liver microsomes of different species (overall statement); type: in vitro ADME; conditions: for metabolism differences between species: liver microsomes of different species; for half-life at 0.193 µM: mouse, rat, human, dog (Example 4), human (Example 5), liver microsomes, pH 7.4, liver microsomes, overall over the species
Method: as §1

[5] = In vitro metabolism in liver microsomes, mouse; type: in vitro ADME; conditions: for In vivo inherent clearance rate: from mouse liver microsomes; for half-life at 0.193 µM: mouse, liver microsomes, pH 7.4, mouse liver microsomes; for microsomal CLint at 0.193 µM: pH 7.4, read-out: Inherent clearance rate in liver microsomes
Method: as §1

[6] = test system: Mesenteric primary endothelial cells; assay: Determination of intracellular K+ (PBFI fluorescence ratio); type: cell-based; conditions: high-salt state, 10 μmol/L, 24 hours, versus no drug
Method: Mesenteric primary endothelial cells were cultured for 3-5 days and separately incubated with the compounds in Examples 4, 5 and 6 with a concentration of 10 μmol/L for 24 hours. A culture medium was removed. The cells and NPSS containing PBFI were incubated in an incubator at a ratio of 1:200 at 37° C. in a dark environment.
An Olympus fluorescence imaging system was used for measuring fluorescence with dual excitation at 340 nm and 380 nm. Changes of [K^+] were calculated as changes of a PBFI ratio.

[7] = test system: hypertensive mice induced by a high-salt diet; assay: Effects on blood pressure of hypertensive mice in vivo (tail-cuff); conditions: intragastric, 30 mg/kg; for Mean arterial pressure change value: maximum drop of the blood pressure
Method: The blood pressure of mice was determined by using an IITC non-invasive sphygmomanometer and a tail-cuff method. At first, the mice were trained every day for at least a week with half an hour each time. During each test, a systolic blood pressure value, a diastolic blood pressure value, a mean arterial pressure value and a heart rate could be obtained. After adaption, the mice were administered intragastrically with the compounds in Examples 4 and 5 with a dosage of 30 mg/kg, and then the blood pressure of the hypertensive mice was measured within a regular time. According to results, it was shown that after the compound in Example 4 was used, the blood pressure was reduced for only 1.5 h; and after the compound in Example 5 was used, the blood pressure could be reduced for 8 h.
(§2) According to a line chart in FIG. 4, the abscissa referred to time with h as the unit; and the ordinate referred to systolic blood pressure (SBP), mean arterial pressure (MAP) and diastolic blood pressure (DBP) with mmHg as the unit. […] According to a histogram, the ordinate referred to changes of the mean arterial pressure with mmHg as the unit. […] HS referred to the hypertensive mice induced by a high-salt diet (model mice used in in vivo experiments in this example). WT referred to normal wild-type mice. A control group Ctrl referred to model mice administered intragastrically with normal saline rather than the compounds involved in this application.
as §2, with “5,” for “4,”

T1 sequence (Q9EPK8 whole entry): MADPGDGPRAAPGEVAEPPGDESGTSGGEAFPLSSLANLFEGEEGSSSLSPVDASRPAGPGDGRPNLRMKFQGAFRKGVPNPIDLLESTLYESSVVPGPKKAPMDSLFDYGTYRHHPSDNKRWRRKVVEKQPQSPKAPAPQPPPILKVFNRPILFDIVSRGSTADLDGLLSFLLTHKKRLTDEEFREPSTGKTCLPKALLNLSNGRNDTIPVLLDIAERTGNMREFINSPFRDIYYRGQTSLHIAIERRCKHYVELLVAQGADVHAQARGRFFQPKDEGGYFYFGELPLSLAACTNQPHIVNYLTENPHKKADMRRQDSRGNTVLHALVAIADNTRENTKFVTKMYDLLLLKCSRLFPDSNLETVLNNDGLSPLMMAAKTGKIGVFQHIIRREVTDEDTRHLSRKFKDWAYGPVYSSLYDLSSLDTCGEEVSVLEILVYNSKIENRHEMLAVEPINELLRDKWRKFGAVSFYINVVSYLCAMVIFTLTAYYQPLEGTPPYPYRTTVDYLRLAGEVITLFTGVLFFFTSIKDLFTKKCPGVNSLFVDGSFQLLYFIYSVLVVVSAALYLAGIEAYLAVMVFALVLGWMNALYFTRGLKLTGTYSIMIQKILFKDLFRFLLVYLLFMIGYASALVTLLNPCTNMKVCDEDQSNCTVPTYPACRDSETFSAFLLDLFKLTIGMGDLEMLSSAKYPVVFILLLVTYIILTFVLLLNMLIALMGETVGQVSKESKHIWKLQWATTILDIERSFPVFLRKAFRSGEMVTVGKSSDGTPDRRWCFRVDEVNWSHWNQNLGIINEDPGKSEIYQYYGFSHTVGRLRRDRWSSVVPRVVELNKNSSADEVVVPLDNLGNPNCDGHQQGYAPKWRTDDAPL
T1 sequence (P58391 whole entry): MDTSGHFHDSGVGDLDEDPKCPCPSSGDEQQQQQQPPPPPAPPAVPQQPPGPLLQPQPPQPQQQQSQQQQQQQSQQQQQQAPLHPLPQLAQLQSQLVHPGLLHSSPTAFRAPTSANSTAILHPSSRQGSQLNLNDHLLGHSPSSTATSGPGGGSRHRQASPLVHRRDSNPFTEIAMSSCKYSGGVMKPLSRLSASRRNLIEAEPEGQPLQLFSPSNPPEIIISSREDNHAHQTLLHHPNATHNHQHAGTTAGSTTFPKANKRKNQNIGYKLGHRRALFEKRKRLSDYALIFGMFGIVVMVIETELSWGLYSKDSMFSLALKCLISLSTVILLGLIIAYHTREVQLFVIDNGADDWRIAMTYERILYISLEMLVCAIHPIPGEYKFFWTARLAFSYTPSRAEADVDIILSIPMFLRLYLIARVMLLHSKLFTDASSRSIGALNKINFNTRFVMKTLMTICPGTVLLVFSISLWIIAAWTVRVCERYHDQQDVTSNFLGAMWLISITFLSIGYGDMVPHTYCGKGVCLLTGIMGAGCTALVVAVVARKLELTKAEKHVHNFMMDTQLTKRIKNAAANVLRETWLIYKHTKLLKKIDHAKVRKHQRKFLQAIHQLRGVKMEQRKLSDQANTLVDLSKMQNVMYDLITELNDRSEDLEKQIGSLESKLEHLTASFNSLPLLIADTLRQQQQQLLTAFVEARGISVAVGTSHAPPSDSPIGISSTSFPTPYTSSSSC

Q: With `O=C(Cc1ccncc1)NCCCNC(=O)c1nc(=O)c2ccccc2[nH]1` [Example 1, 4-oxo-N-(3-(2-(pyridin-4-yl)acetamido)propyl)-1,4-dihydroquinazoline-2-carboxamide] as the compound, how does the “Fret efficiency value (average value)” value (TRPV4-KCa2.3 complex) read?
A: The value was 6.06.

Q: What about the “coupling between the TRPV4 and the KCa2.3” value (TRPV4-KCa2.3 complex) of the same compound?
A: The value was “enhanced”.

Q: Which “Fret efficiency value (average value)” value (TRPV4-KCa2.3 complex) does the source give for `O=C(NCCCNC(=O)c1nc(=O)c2ccccc2[nH]1)Nc1ccncc1` [Example 2, 4-oxo-N-(3-(3-(pyridin-4-yl)ureido)propyl)-1,4-dihydroquinazoline-2-carboxamide] here?
A: Its value is 5.98.

Q: What about the “coupling between the TRPV4 and the KCa2.3” value (TRPV4-KCa2.3 complex) of the same compound?
A: Its value is “enhanced”.

Q: Which “Fret efficiency value (average value)” value (TRPV4-KCa2.3 complex) does the source give for `CCN1CCN(Cc2ccc(NC(=O)NCCCNC(=O)c3nc(=O)c4ccccc4[nH]3)cc2)CC1` [Example 3] here?
A: Its value is 5.62.

Q: What about the “coupling between the TRPV4 and the KCa2.3” value (TRPV4-KCa2.3 complex) of the same compound?
A: Its value is “enhanced”.

Q: For `CCN1CCN(Cc2ccc(NC(=O)NCCCCC(=O)Nc3ccccc3)cc2)CC1` [Example 4, 5-(3-(4-((4-ethylpiperazin-1-yl)methyl)phenyl)ureido)-N-phenylpentaneamide], which “In vivo inherent clearance rate” value ([1]; from dog liver microsomes) is on record?
A: The value was 15.91 ml · ^1min · kg^−1.

Q: What about the half-life at 0.193 µM ([1]; pH 7.4, dog liver microsomes) of the same compound?
A: Its half-life at 0.193 µM is 2.23 h.

Q: And the microsomal CLint at 0.193 µM ([1]; pH 7.4, dog liver microsomes, read-out: Inherent clearance rate in liver microsomes)?
A: The microsomal CLint at 0.193 µM was 11 µL/min/mg.

Q: What about the “In vivo inherent clearance rate” value [2] of the same compound?
A: The value was 9.43 ml · ^1min · kg^−1.

Q: What about the half-life at 0.193 µM ([2]; 37° C., NADPH) of the same compound?
A: The half-life at 0.193 µM was 2.44 h.

Q: What about the microsomal CLint at 0.193 µM ([2]; human liver microsomes) of the same compound?
A: Its microsomal CLint at 0.193 µM is 9.5 µL/min/mg.

Q: What about the “In vivo inherent clearance rate” value ([3]; from rat liver microsomes) of the same compound?
A: Its value is 15.07 ml · ^1min · kg^−1.

Q: And the half-life at 0.193 µM ([3]; pH 7.4, rat liver microsomes)?
A: Its half-life at 0.193 µM is 2.85 h.

Q: And the microsomal CLint at 0.193 µM ([3]; pH 7.4, rat liver microsomes, read-out: Inherent clearance rate in liver microsomes)?
A: The microsomal CLint at 0.193 µM was 8.4 µL/min/mg.

Q: And the “metabolism differences between species” value [4]?
A: The value was “no metabolism differences between species”.

Q: What about the half-life at 0.193 µM [4] of the same compound?
A: Its half-life at 0.193 µM is about 2.5 h.

Q: What about the “In vivo inherent clearance rate” value [5] of the same compound?
A: Its value is 40.21 ml · ^1min · kg^−1.

Q: And the half-life at 0.193 µM [5]?
A: The half-life at 0.193 µM was 2.34 h.

Q: And the microsomal CLint at 0.193 µM ([5]; mouse liver microsomes)?
A: The microsomal CLint at 0.193 µM was 10 µL/min/mg.

Q: And the “outflow ability of the intracellular potassium ions (changes of [K+])” value (“outflow ability … (changes of [K+])” for short) [6]?
A: Its value is “significantly improved”.

Q: What about the “Fret efficiency value (average value)” value (TRPV4-KCa2.3 complex) of the same compound?
A: The value was 8.15.

Q: And the “coupling between the TRPV4 and the KCa2.3” value (TRPV4-KCa2.3 complex)?
A: Its value is “enhanced”.

Q: What about the “time for which the blood pressure was reduced” value [7] of the same compound?
A: Its value is 1.5 h.

Q: What about the “Mean arterial pressure change value” [7] of the same compound?
A: Its value is 16 mmHg.

Q: With `CCN1CCN(Cc2ccc(NC(=O)NCCCCC(=O)Nc3ccc(F)cc3)cc2)CC1` [Example 5, 5-(3-(4-((4-ethylpiperazin-1-yl)methyl)phenyl)ureido)-N-(4-fluorophenyl)pentaneamide] as the compound, how does the “In vivo inherent clearance rate” value [2] read?
A: The value was 22.326 ml · ^1min · kg^−1.

Q: What about the “Half-life obtained after incubation in liver microsomes of human” value ([2]; human liver microsomes, 37° C., NADPH) of the same compound?
A: Its value is 4.23 h.

Q: What about the half-life at 0.193 µM ([2]; 37° C., NADPH) of the same compound?
A: Its half-life at 0.193 µM is 3.35 h.

Q: And the microsomal CLint at 0.193 µM ([2]; human liver microsomes)?
A: The microsomal CLint at 0.193 µM was 5.7 µL/min/mg.

Q: What about the “metabolism differences between species” value [4] of the same compound?
A: Its value is “no metabolism differences between species”.

Q: And the half-life at 0.193 µM [4]?
A: Its half-life at 0.193 µM is 4 ± 0.5 h.

Q: And the “In vivo inherent clearance rate” value [5]?
A: Its value is 7.065 ml · ^1min · kg^−1.

Q: What about the “Half-life in liver microsomes” value ([5]; mouse liver microsomes) of the same compound?
A: Its value is 3.35 h.

Q: What about the half-life at 0.193 µM [5] of the same compound?
A: Its half-life at 0.193 µM is 4.23 h.

Q: What about the microsomal CLint at 0.193 µM ([5]; mouse liver microsomes) of the same compound?
A: The microsomal CLint at 0.193 µM was 7.1 µL/min/mg.

Q: And the “outflow ability … (changes of [K+])” value [6]?
A: Its value is “significantly improved”.

Q: What about the “Fret efficiency value (average value)” value (TRPV4-KCa2.3 complex) of the same compound?
A: Its value is 7.68.

Q: And the “coupling between the TRPV4 and the KCa2.3” value (TRPV4-KCa2.3 complex)?
A: The value was “enhanced”.

Q: What about the “time for which the blood pressure was reduced” value [7] of the same compound?
A: The value was 8 h.

Q: And the “Mean arterial pressure change value” [7]?
A: The value was 38 mmHg.

Q: Which “outflow ability … (changes of [K+])” value [6] does the source give for `CCN1CCN(Cc2ccc(NC(=O)NCCCCCNC(=O)c3ccc(F)cc3)cc2)CC1` [Example 6] here?
A: Its value is “significantly improved”.

Q: And the “Fret efficiency value (average value)” value (TRPV4-KCa2.3 complex)?
A: Its value is 7.98.

Q: What about the “coupling between the TRPV4 and the KCa2.3” value (TRPV4-KCa2.3 complex) of the same compound?
A: The value was “enhanced”.

Q: For `O=C(NCCCNC(=O)C(c1ccccc1)c1ccccc1)c1nc(=O)c2ccccc2[nH]1` [JNC-440, reference compound], which half-life at 0.193 µM ([2]; 37° C., NADPH) is on record?
A: The half-life at 0.193 µM was 0.813 h.

Q: And the “Fret efficiency value (average value)” value (TRPV4-KCa2.3 complex)?
A: The value was 5.02.

Q: And the “Mean arterial pressure change value” [7]?
A: The value was 10 mmHg.
